# Assays:
# HGGX39 [1] = paediatric high-grade glioma line; experiment: EC50 (inflection of fitted growth-inhibition curve) (log10 M)
# Procedure, shortened: (§1)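 Treatment used a pin tool and a 10-point threefold dilution series, mean top concentration 35 μM, run in triplicate on patient-derived pHGG/DIPG cell lines and astrocyte controls in 1% Geltrex-coated 384-well plates. Plates were kept at 37 °C, 5% CO2 for 7 days (iAstro: 3 days). Log2-transformed CellTiter-Glo luminescence was scaled per plate to % activity between negative (solvent) and positive control wells and pooled before fitting. EC50 and maximal response (yFin) came from the three- or four-parameter log-logistic fit chosen by lowest AICc.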
# HGGX2 [2] = paediatric high-grade glioma line; experiment: as above
# Procedure, shortened: as §1
# SUDIPGXIII [3] = diffuse intrinsic pontine glioma line; experiment: as above
# Procedure, shortened: as §1
# HABS [4] = astrocyte control; experiment: as above
# Procedure, shortened: as §1
# SUDIPGVI [5] = diffuse intrinsic pontine glioma line; experiment: as above
# Procedure, shortened: as §1
# DIPGX29 [6] = H3.3 K27M diffuse intrinsic pontine glioma line; experiment: as above
# Procedure, shortened: as §1
# SUDIPGIV [7] = diffuse intrinsic pontine glioma line; experiment: as above
# Procedure, shortened: as §1
# HGGX42 [8] = H3.3 G34R paediatric high-grade glioma line; experiment: as above
# Procedure, shortened: as §1
# HGGX6 [9] = H3.3 G34R paediatric high-grade glioma line; experiment: as above
# Procedure, shortened: as §1
# DIPGX9 [10] = diffuse intrinsic pontine glioma line; experiment: as above
# Procedure, shortened: as §1
# SUDIPGXXI [11] = diffuse intrinsic pontine glioma line; experiment: as above
# Procedure, shortened: as §1
# SUDIPGXIX [12] = diffuse intrinsic pontine glioma line; experiment: as above
# Procedure, shortened: as §1
# SUDIPGXVII [13] = diffuse intrinsic pontine glioma line; experiment: as above
# Procedure, shortened: as §1
# iAstro [14] = astrocyte control; experiment: as above
# Procedure, shortened: as §1
# DIPGX37 [15] = H3.3 K27M diffuse intrinsic pontine glioma line; experiment: as above
# Procedure, shortened: as §1
# DIPGX7 [16] = H3.3 K27M diffuse intrinsic pontine glioma line; experiment: as above
# Procedure, shortened: as §1
# SUDIPGXIII [17] = experiment: area under dose-response curve of % growth inhibition (log2 RLU vs DMSO / staurosporine), 1e-11 to 1e-4 M (% x log10 M); higher = more growth inhibition
# Procedure, shortened: (§2)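 Patient-derived pHGG/DIPG cell lines and astrocytes were plated in 384-well plates coated with 1% Geltrex and treated in triplicate with a 10-point threefold dilution series whose mean top concentration was 35 μM, for 7 days (3 days for iAstro) at 37 °C and 5% CO2. CellTiter-Glo luminescence was log2-transformed and scaled on each plate to % activity between solvent and positive controls. Area under the curve came from the trapezoid rule applied to a fitted log-logistic curve, or to a smoothing spline where the sigmoid fit failed.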
# HABS [18] = experiment: as above
# Procedure, shortened: as §2
# HGGX6 [19] = experiment: as above
# Procedure, shortened: as §2
# DIPGX9 [20] = experiment: as above
# Procedure, shortened: as §2
# DIPGX37 [21] = experiment: as above
# Procedure, shortened: as §2
# HGGX39 [22] = experiment: maximal growth inhibition (yFin) relative to DMSO / staurosporine; higher = more efficacious
# Procedure, shortened: as §1
# HGGX2 [23] = experiment: as above
# Procedure, shortened: as §1
# SUDIPGXIII [24] = experiment: as above
# Procedure, shortened: as §1
# HABS [25] = experiment: as above
# Procedure, shortened: as §1
# SUDIPGVI [26] = experiment: as above
# Procedure, shortened: as §1
# DIPGX29 [27] = experiment: as above
# Procedure, shortened: as §1
# SUDIPGIV [28] = experiment: as above
# Procedure, shortened: as §1
# HGGX42 [29] = experiment: as above
# Procedure, shortened: as §1
# HGGX6 [30] = experiment: as above
# Procedure, shortened: as §1
# DIPGX9 [31] = experiment: as above
# Procedure, shortened: as §1
# SUDIPGXXI [32] = experiment: as above
# Procedure, shortened: as §1
# SUDIPGXIX [33] = experiment: as above
# Procedure, shortened: as §1
# SUDIPGXVII [34] = experiment: as above
# Procedure, shortened: as §1
# iAstro [35] = experiment: as above
# Procedure, shortened: as §1
# DIPGX37 [36] = experiment: as above
# Procedure, shortened: as §1
# DIPGX7 [37] = experiment: as above
# Procedure, shortened: as §1
Compound,EC50 (log10 M) (HGGX39 [1]),EC50 (log10 M) (HGGX2 [2]),EC50 (log10 M) (SUDIPGXIII [3]),EC50 (log10 M) (HABS [4]),EC50 (log10 M) (SUDIPGVI [5]),EC50 (log10 M) (DIPGX29 [6]),EC50 (log10 M) (SUDIPGIV [7]),EC50 (log10 M) (HGGX42 [8]),EC50 (log10 M) (HGGX6 [9]),EC50 (log10 M) (DIPGX9 [10]),EC50 (log10 M) (SUDIPGXXI [11]),EC50 (log10 M) (SUDIPGXIX [12]),EC50 (log10 M) (SUDIPGXVII [13]),EC50 (log10 M) (iAstro [14]),EC50 (log10 M) (DIPGX37 [15]),EC50 (log10 M) (DIPGX7 [16]),area under dose-response curve (SUDIPGXIII [17]),area under dose-response curve (HABS [18]),area under dose-response curve (HGGX6 [19]),area under dose-response curve (DIPGX9 [20]),area under dose-response curve (DIPGX37 [21]),maximal growth inhibition (HGGX39 [22]),maximal growth inhibition (HGGX2 [23]),maximal growth inhibition (SUDIPGXIII [24]),maximal growth inhibition (HABS [25]),maximal growth inhibition (SUDIPGVI [26]),maximal growth inhibition (DIPGX29 [27]),maximal growth inhibition (SUDIPGIV [28]),maximal growth inhibition (HGGX42 [29]),maximal growth inhibition (HGGX6 [30]),maximal growth inhibition (DIPGX9 [31]),maximal growth inhibition (SUDIPGXXI [32]),maximal growth inhibition (SUDIPGXIX [33]),maximal growth inhibition (SUDIPGXVII [34]),maximal growth inhibition (iAstro [35]),maximal growth inhibition (DIPGX37 [36]),maximal growth inhibition (DIPGX7 [37])
O=C(c1ccccc1)c1ccc2nc(NC(=O)c3csc(C4CCN(c5ncnc6ccsc56)CC4)n3)[nH]c2c1,-5.87,-5.06,-5.72,-5.18,-5.46,-5.26,-5.86,-5.14,-5.19,-5.03,-5.2,-4.95,-5.91,-5.2,-5.87,-5.45,114,42.1,55.8,62.6,89.1,29.6%,51.9%,50.1%,35.8%,45.9%,62.1%,27.7%,48.7%,36%,44.1%,111%,112%,28.2%,64.8%,38.4%,89.8%
CCN1CCN(Cc2ccc(Nc3ncc(F)c(-c4cc(F)c5nc(C)n(C(C)C)c5c4)n3)nc2)CC1 [ABEMACICLIB],-6.29,-6.84,-6.07,–,-6.09,-6.78,-6.04,-6.74,-5.83,-6.86,-6.6,-6.26,-6.01,-6.74,-6.56,-6.11,109,93.8,127,124,255,84.4%,42.3%,52.5%,–,48.9%,38.4%,76.8%,30.7%,69.4%,43.3%,96.9%,110%,61.1%,59%,99.9%,110%
COCC1(CO)C(=O)C2CCN1CC2 (centres undefined) [APR-246],–,-4.71,-4.77,–,-4.72,-4.85,-4.81,-4.72,-4.81,-4.82,-5.41,-4.78,-4.81,-4.91,-4.79,-4.79,74.7,8.03,73.1,94.2,87.7,–,97.9%,97.3%,–,102%,106%,105%,99.8%,90.1%,105%,112%,96.4%,99%,90.9%,111%,102%
CN1[C@@H]2CC[C@H]1C[C@@H](OC(=O)c1cc(Cl)cc(Cl)c1)C2 [BEMESETRON],-5.05,-4.99,–,-4.73,–,-5.09,-4.99,-5.38,-4.86,-4.9,-5.63,-4.85,-4.9,-5.08,-5.32,-5.23,8.98,14.8,73.6,58.7,137,81.4%,49.4%,–,20.8%,–,89.8%,77.1%,86.2%,63.8%,43.8%,104%,77.2%,44.2%,36.1%,102%,90.5%
CC(C)C[C@H](NC(=O)[C@H](CCc1ccccc1)NC(=O)CN1CCOCC1)C(=O)N[C@@H](Cc1ccccc1)C(=O)N[C@@H](CC(C)C)C(=O)[C@@]1(C)CO1 [CARFILZOMIB],-6.2,-7.54,-5.36,-6.6,-6.71,-5.73,-7.24,-6.77,-6.37,-7,–,-6.53,-6.36,-8.68,-6.68,-7.29,148,280,217,343,266,107%,97.2%,105%,108%,95.3%,96.2%,98.6%,77%,91.3%,115%,–,116%,105%,87.1%,98.9%,92%
Cc1noc2c1-c1ccccc1C(c1ccc(Cl)cc1)=N[C@H]2CC(N)=O [CPI-0610],-4.96,-5.42,–,-5.3,-5.11,-5.05,-5.51,-5.3,-5.43,-5.71,-6.13,-5.17,-5.39,-5.98,–,-4.88,13.5,97.5,59.4,194,81.3,109%,69.1%,–,72.8%,106%,90.8%,75.1%,80.1%,41.6%,113%,116%,127%,63.3%,39%,–,116%
CCCc1cc(C)[nH]c(=O)c1CNC(=O)c1cc(-c2ccnc(N3CCN(C)CC3)c2)cc2c1cnn2C(C)C [GSK343],-4.59,-4.78,-4.57,-4.81,-4.59,-4.6,-4.69,-4.7,-4.6,-4.74,-4.81,-4.69,–,-4.88,-4.59,-4.63,49.9,56.1,66.3,90.7,99.1,20.4%,113%,87.9%,69%,112%,120%,74.3%,115%,111%,123%,126%,125%,–,66.2%,122%,114%
C=CCn1c(=O)c2cnc(Nc3ccc(N4CCN(C)CC4)cc3)nc2n1-c1cccc(C(C)(C)O)n1 [MK-1775],-5.05,-6.67,–,-5.41,–,-6.91,-5.92,-5.45,-5.72,-5.33,-6.07,-6.03,-5.54,-6.04,-6.2,-5.75,15,35.1,37.6,60,48.9,43.8%,31%,–,26.7%,–,39.2%,46.7%,34.5%,24.9%,41.4%,91.8%,37.7%,25.1%,36.6%,22.2%,25%
COc1ncc(-c2ccc3nccc(-c4ccnnc4)c3c2)cc1NS(=O)(=O)c1ccc(F)cc1F [OMIPALISIB],-5.79,-6,-5.65,-6.58,-6.23,-5.88,-6.11,-6.22,-4.77,-7.52,-7.11,-7,-6.19,-5.44,-6.38,–,225,262,193,366,290,115%,105%,108%,101%,112%,105%,110%,99.4%,110%,104%,118%,108%,111%,41.1%,116%,–
CCOc1cc(C(C)(C)C)ccc1C1=N[C@@](C)(c2ccc(Cl)cc2)[C@@](C)(c2ccc(Cl)cc2)N1C(=O)N1CCN(CCCS(C)(=O)=O)CC1 [RG7112],-4.85,-4.78,-4.75,-5.4,-4.87,-4.8,-4.86,-4.64,-4.71,-5.7,-6.49,-5.56,-4.8,-4.85,–,-4.82,77.5,176,61.6,204,169,96.2%,101%,61.6%,108%,35.2%,93.2%,55.8%,94.2%,86.4%,109%,115%,113%,102%,82.6%,–,70.5%
C=CCNC1=C2C[C@@H](C)C[C@H](OC)[C@H](O)[C@@H](C)/C=C(\C)[C@H](OC(N)=O)[C@@H](OC)/C=C\C=C(/C)C(=O)NC(=CC1=O)C2=O [TANESPIMYCIN],-6.48,-4.97,-4.95,-5.41,-5.19,-5.85,-5.88,-6.01,-5.84,-6.85,-5.76,-6.32,-4.99,-5.41,-6.99,–,80.1,161,59.6,309,312,97.3%,84.8%,73.1%,114%,39.8%,70%,72.4%,50.5%,33.9%,108%,122%,92.1%,74.7%,39.3%,104%,–

# Reference: the supplement of paper PMC8253809
